Experimental findings from article PMC6813295, “A tumour-selective cascade activatable self-detained system for drug delivery and cancer imaging” (Nature Communications, 2019) are described below.

The assay has as its system H460 tumour-bearing nude mice. Description: In vivo antitumor efficacy and safety of treatment. Set-up: species or system mouse. The following applies: five times, n = 5. The source says: Data are presented as mean ± s.d.
(1 picture or pasted object on this page, not shown here)

`COc1cccc2c1C(=O)c1c(O)c3c(c(O)c1C2=O)C[C@@](O)(C(=O)CO)C[C@@H]3O[C@H]1C[C@H](N)[C@H](O)[C@H](C)O1` [DOX, doxorubicin]: the “mean tumour volume after 14 days” value (i.v. DOX dose 2.0 mg/kg, once every other day) came to 854 mm^3. The median survival time (i.v. identical DOX dose 2.0 mg/kg, Kaplan–Meier) was 12 days.
